Patent US20260130959A1, “FUNGAL EXTRACTS AND FLAVOR COMBINATIONS THEREOF” (MYCOTECHNOLOGY, INC., priority 2019, published 2026)

Tested on: Sprague-Dawley rats
Assay: Rat lick study (Davis Rig) on saccharin, citric acid and quinine
Format: in vivo
Conditions: water 192 licks
Experimental: Bitter blocker prepared as described above in Example 2, at 5, 25, 50 and 100 mg/L alone (called CLEARTASTE® herein) and added to each solution below:
Sucrose 250 mM; Saccharin 10 mM; MSG 150 mM; NaCl 400 and 800 mM; Citric Acid 10 mM; Quinine 0.08 and 0.16 mM.
16 naïve, adult (>50 days old, approximately 200 gram body weight), male Sprague-Dawley rats were tested in the MS-160 “Davis Rig,” manufactured by DiLog Instruments, Inc. We measured licking behavior at a resolution of 1 ms during the controlled presentation of up to 16 taste stimuli. The Davis Rig is housed inside an acoustic isolation chamber utilizing a white noise generator. Intake and exhaust fans located on opposing walls of the chamber direct constant air flow along the longitudinal axis of the stimulus delivery tray in order to reduce olfactory cues for any given stimulus. Therefore all licking behavior during brief (30 s duration) trials was motivated by orosensory/taste sensations. Rats were trained to lick during trials presenting water as the stimulus in the Davis Rig for three consecutive days prior to the start of testing. Each daily test session contained two blocks of 15 trials producing two replications of each test stimulus within each daily session. We tested the rats for a total of eight days.

## C=C[C@H]1C[N@@]2CC[C@H]1C[C@H]2[C@H](O)c1ccnc2ccc(OC)cc12 [quinine]
0.08 mM quinine alone
  licks: 170 licks
0.16 mM quinine alone
  licks: 70 licks
